Like-named read-outs stand apart in the source and are kept apart here. *1 amine or outer side, *2 acyl side, *3 side chain or, on linkers, in order; H or OH if unused. Where a SMILES comes first, the peptide text is derived from it. Bridges are numbered along the chain shown (N, C = ends). [ ]: non-standard residue; d: D form. The star is where a group is joined. TATA = O=C(CC[*:1])N1CN(C(=O)CC[*:2])CN(C(=O)CC[*:3])C1; NOTA = O=C(O)CN1CCN(CC(=O)O)CCN(CC(=O)*)CC1; Hyp = O=C(O)[C@@H]1C[C@@H](O)CN1; hArg = N=C(N)NCCCC[C@H](N)C(=O)O; PEG2 = NCCOCCOCCC(=O)O; Sar = CNCC(=O)O
Legend:
Ex vivo biodistribution = assay type: in vivo, NSG mice; settings: both sexes, NSG, mouse, total radioactivity, 60 min p.i., mean ± SEM (n = 4 or 5)
Procedure: (§1) Animal studies were performed under Johns Hopkins University Animal Care and Use Committee (ACUC)-approved protocol (Principal investigator: Sridhar Nimmagadda, Ph.D. and Protocol number M021M175). Male and Female NSG mice (5-6 weeks old) were purchased from JHU immunocompromised core and used to establish xenografts by administering cells subcutaneously (top right flank, unless otherwise noted) to form various tumor models within 3-4 weeks. Following cell numbers were used: Panc1, AsPC1, BxPC3 (1 M), Hs766T and SU8686 (2 M), CFPAC and Panc1005 (5 M). Imaging or biodistribution studies (n = 3-5) were conducted on mice with tumor volumes of 100-200 mm^3. The Panc1 orthotopic tumor model was established by surgically implanting a 3-5 mm^3 section of Panc1 tumor xenograft directly onto the pancreas. The implanted tumors were allowed to grow and were ready for imaging after 10 days of implantation.
(§2) Mice with 100-200 mm^3 tumor volume were used for ex vivo biodistribution studies. For radiotracer pharmacokinetics and dosimetry studies, mice with Panc1 tumor xenograft received ~80 µCi (2.96 MBq) [^68Ga]AJ201 and were sacrificed at pre-determined time points (5, 30, 60, 90 and 120 min). All other mice were injected with ~50 µCi (1.85 MBq; 0.2 to 0.5 nmol) Ga-68 labeled radiotracer and were sacrificed at 60 min. The selected tissues were collected, weighed, counted, and their %ID/g values calculated for biodistribution analysis. For pharmacokinetics and dosimetry studies, selected tissues included blood, muscle, tumor, thymus, heart, lung, liver, pancreas, stomach, small intestine, large intestine, spleen, adrenals, kidney, bladder, femur, brain and tumor xenografts. For other studies, selected tissues were blood, muscle, tumor, heart, lung, liver, pancreas, small intestine, spleen, kidney.

CFPAC tumor xenografts = assay: Ex vivo biodistribution; assay type: in vivo, NSG mice; settings: CFPAC xenograft; 60 min p.i.; mean ± SEM (n = 4 or 5)
Procedure: as §1, §2

[1] = PET-MR imaging of Panc1 orthotopic tumor model; assay type: in vivo, mice; settings: both sexes, NSG, mouse, iv, total radioactivity, PET/MR 60 min p.i., ROI (n = 4)
Procedure: as §1
Mice having orthotopic panc1 tumors were injected intravenously with [^68Ga]AJ201 and PET images were acquired at 60 min after radiotracer injection for 10 min in 1 bed positions (full body) and whole-body MRI using a Simultaneous 7T Bruker PET-MR. The PET data were acquired, reconstructed, and corrected for radioactive decay using ParaVision 360 V2 by Bruker. The %ID per cc values were obtained after drawing ROI (regain of interest) in tumor and muscle using PMOD software. […]

[2] = In vitro stability of radiotracers in saline / formulation buffer; assay type: physicochemical; settings: 37 °C, radio-RP-HPLC
Procedure: The stability of the radiotracers was assessed in saline and human serum at 37 °C to mimic physiological conditions. Approximately 1.5 mCi of the radiotracer, prepared in 100-150 µL of saline, was added to 0.5 mL of either saline or human serum in separate microcentrifuge tubes. The mixtures were gently vortexed and then incubated at 37 °C in an incubator. At predetermined time-points (1, 2, and 3 h), 100 µL aliquots were collected from the incubation mixtures for analysis. For serum samples, proteins were removed by adding 100 µL of saline and 50 µL of ethanol, followed by ultrafiltration using 10 kDa centrifugal filters made of regenerative cellulose membranes. The filtration process was performed by centrifugation at 14,000 rpm for 10 min and repeated once more to ensure complete protein removal. The filtrate was collected for analysis. The radiochemical integrity of the radiotracer in both saline and serum was evaluated using radio-RP-HPLC.

[3] = PET tumor uptake (SUV) of [68Ga]AJ201; assay type: in vivo; settings: total radioactivity

CC(C)C[C@@H]1NC(=O)[C@@H]2CSCCC(=O)N3CN(CN(C3)C(=O)CCSC[C@H](NC(=O)[C@H](CC(=O)O)NC(=O)[C@H](CCCCNC(=N)N)NC(=O)[C@H](C)NC(=O)CNC(=O)CN(C)C(=O)CN(C)C(=O)CN(C)C(=O)[C@H](CCCNC(=N)N)NC(=O)CNC(=O)CCOCCOCCNC(=O)CN3CCN(CC(=O)O)CCN(CC(=O)O)CC3)C(=O)N3C[C@H](O)C[C@H]3C(=O)N[C@@H](CC(C)C)C(=O)N[C@@H](C(C)C)C(=O)N[C@@H](CC(N)=O)C(=O)N3CCC[C@H]3C(=O)N[C@@H](CC(C)C)C(=O)N2)C(=O)CCSC[C@@H](C(N)=O)NC(=O)[C@H](CCCCNC(=N)N)NC(=O)[C@H](Cc2c[nH]c3ccccc23)NC(=O)[C@@H](CC(=O)O)NC(=O)[C@@H]2CCCN2C(=O)[C@H](Cc2c[nH]cn2)NC1=O [[^68Ga]AJ201, metal not drawn] ({NOTA-PEG2}-GR[Sar][Sar][Sar]GA[hArg]DC[Hyp]LVNPLCLHP[dD]W[hArg]C-NH2; linker 10-17-24 via TATA)
tissue uptake at 1 h (Ex vivo biodistribution; small intestine, AsPC1 xenograft, read-out: Small intestine uptake): 1.12 ± 0.08 %ID/g
tissue uptake at 1 h (Ex vivo biodistribution; small intestine, BxPC3 xenograft, read-out: Small intestine uptake): 0.32 ± 0.02 %ID/g
tissue uptake at 1 h (Ex vivo biodistribution; small intestine, Hs766T xenograft, read-out: Small intestine uptake): 0.62 ± 0.02 %ID/g
tissue uptake at 1 h (Ex vivo biodistribution; small intestine, Panc1005 xenograft, read-out: Small intestine uptake): 0.25 ± 0.03 %ID/g
tissue uptake at 1 h (Ex vivo biodistribution; small intestine, Su8686 xenograft, read-out: Small intestine uptake): 0.29 ± 0.05 %ID/g
tissue uptake at 1 h (Ex vivo biodistribution; spleen, AsPC1 xenograft, read-out: Spleen uptake): 1.61 ± 0.11 %ID/g
tissue uptake at 1 h (Ex vivo biodistribution; spleen, BxPC3 xenograft, read-out: Spleen uptake): 0.64 ± 0.05 %ID/g
tissue uptake at 1 h (Ex vivo biodistribution; spleen, CFPAC xenograft, read-out: Spleen uptake): 0.87 ± 0.15 %ID/g
tissue uptake at 1 h (Ex vivo biodistribution; spleen, Hs766T xenograft, read-out: Spleen uptake): 2.75 ± 0.65 %ID/g
tissue uptake at 1 h (Ex vivo biodistribution; spleen, Panc1005 xenograft, read-out: Spleen uptake): 0.52 ± 0.05 %ID/g
tissue uptake at 1 h (Ex vivo biodistribution; spleen, Su8686 xenograft, read-out: Spleen uptake): 0.6 ± 0.16 %ID/g
tissue uptake at 1 h (Ex vivo biodistribution; tumor, 50 uCi, CFPAC xenograft, read-out: Tumor uptake): 2.4 ± 0.2 %ID/g
tissue uptake at 1 h (Ex vivo biodistribution; tumor, AsPC1 xenograft, read-out: Tumor uptake): 4.01 ± 0.46 %ID/g
tissue uptake at 1 h (Ex vivo biodistribution; tumor, BxPC3 xenograft, read-out: Tumor uptake): 2.72 ± 0.37 %ID/g
tissue uptake at 1 h (Ex vivo biodistribution; tumor, Hs766T xenograft, read-out: Tumor uptake): 7.97 ± 2.83 %ID/g
tissue uptake at 1 h (Ex vivo biodistribution; tumor, Panc1005 xenograft, read-out: Tumor uptake): 5.31 ± 0.9 %ID/g
tissue uptake at 1 h (Ex vivo biodistribution; tumor, Su8686 xenograft, read-out: Tumor uptake): 7.66 ± 1 %ID/g
tissue to tissue ratio at 1 h (Ex vivo biodistribution; tumor/blood, AsPC1 xenograft, read-out: Tumor/blood ratio): 1.2 ± 0.06
tissue to tissue ratio at 1 h (Ex vivo biodistribution; tumor/blood, BxPC3 xenograft, read-out: Tumor/blood ratio): 4.86 ± 0.92
tissue to tissue ratio at 1 h (Ex vivo biodistribution; tumor/blood, CFPAC xenograft, read-out: Tumor/blood ratio): 4.53 ± 0.9
tissue to tissue ratio at 1 h (Ex vivo biodistribution; tumor/blood, Hs766T xenograft, read-out: Tumor/blood ratio): 5.47 ± 0.81
tissue to tissue ratio at 1 h (Ex vivo biodistribution; tumor/blood, Panc1005 xenograft, read-out: Tumor/blood ratio): 12.9 ± 2.38
tissue to tissue ratio at 1 h (Ex vivo biodistribution; tumor/blood, Su8686 xenograft, read-out: Tumor/blood ratio): 14.2 ± 3.89
tissue to tissue ratio at 1 h (Ex vivo biodistribution; tumor/muscle, AsPC1 xenograft, read-out: Tumor/Muscle ratio): 9.95 ± 1.49
tissue to tissue ratio at 1 h (Ex vivo biodistribution; tumor/muscle, BxPC3 xenograft, read-out: Tumor/Muscle ratio): 15.2 ± 2.14
tissue to tissue ratio at 1 h (Ex vivo biodistribution; tumor/muscle, CFPAC xenograft, read-out: Tumor/Muscle ratio): 12.1 ± 1.45
tissue to tissue ratio at 1 h (Ex vivo biodistribution; tumor/muscle, Hs766T xenograft, read-out: Tumor/Muscle ratio): 17.2 ± 2.33
tissue to tissue ratio at 1 h (Ex vivo biodistribution; tumor/muscle, Panc1005 xenograft, read-out: Tumor/Muscle ratio): 50.1 ± 10.2
tissue to tissue ratio at 1 h (Ex vivo biodistribution; tumor/muscle, Su8686 xenograft, read-out: Tumor/Muscle ratio): 58 ± 11.5
tissue to tissue ratio at 1 h (Ex vivo biodistribution; tumor/pancreas, AsPC1 xenograft, read-out: Tumor/Pancreas ratio): 6.23 ± 0.65
tissue to tissue ratio at 1 h (Ex vivo biodistribution; tumor/pancreas, BxPC3 xenograft, read-out: Tumor/Pancreas ratio): 11 ± 1.71
tissue to tissue ratio at 1 h (Ex vivo biodistribution; tumor/pancreas, CFPAC xenograft, read-out: Tumor/Pancreas ratio): 8.68 ± 1.24
tissue to tissue ratio at 1 h (Ex vivo biodistribution; tumor/pancreas, Hs766T xenograft, read-out: Tumor/Pancreas ratio): 13.8 ± 2.3
tissue to tissue ratio at 1 h (Ex vivo biodistribution; tumor/pancreas, Panc1005 xenograft, read-out: Tumor/Pancreas ratio): 26.9 ± 5.62
tissue to tissue ratio at 1 h (Ex vivo biodistribution; tumor/pancreas, Su8686 xenograft, read-out: Tumor/Pancreas ratio): 39.8 ± 7.21
Muscle uptake (CFPAC tumor xenografts): 0.21 ± 0.04 %ID/g
Small intestine uptake (CFPAC tumor xenografts): 0.51 ± 0.10 %ID/g
tissue to tissue ratio at 1 h ([1]; tumor and muscle, read-out: Tumor-to-muscle ratio): 14.8 ± 4.46
tissue to tissue ratio at 1 h ([1]; tumor and pancreas, read-out: Tumor-to-pancreas ratio): 10.3 ± 2.24
Time of stability in formulation buffer ([2]; 10% EtOH/saline): at least 3 h
Stability in saline (radio-HPLC finding) ([2]; saline, up to 3 h, ~1.5 mCi in 0.5 mL): stable without noticeable degradation or impurity formation
SUV [3]: 1.31 ± 0.11 SUV

Source: PMC11984392, “EphA2-targeted alpha-particle theranostics for enhancing PDAC treatment” (Theranostics, 2025)
